Marks after values point to notes of the source that are not given here.
Experiments:
[1] = system: HCT-116 colon cancer xenografts; assay: Tumor growth inhibition of HCT-116 colon cancer xenografts in tumor-bearing nude mice (tumor volume, TGI %, RTV, T/C %); format: in vivo, Balb/c Nude mice; settings: G10-G16 groups, single IP 400 mg/kg
Outline: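 Nude mice inoculated with HCT-116 cells (about 3×10^7 cells/mL in serum-free medium). Tumor diameter measured three times weekly and volume computed as V=3/4π(D/2)^3. Activity expressed as TGI (%) and T/C (%) from relative tumor volume Vt/V0, with V0 taken at grouping and dosing start; P<0.05 significant.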

ICR mice = assay: in vivo; settings: female ICR mice; single-dose ip
Outline: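 Female SPF ICR mice received a single ip dose in ethanol/Cremophor EL/saline (5:5:90), with dose lowered after deaths and raised otherwise. MTD defined as dose causing no death, no >10% weight loss versus Day 0 and no significant side effects; daily weights and twice-daily clinical observation over 7-14 days.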

[2] = Outline: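 Female SPF Balb/c nude mice bearing subcutaneous HCT-116 xenografts (3×10^6 cells, right hind limb), grouped at 60–150 mm^3, 6 per group; vehicle ethanol/Cremophor EL/saline 5:5:90. Body weight thrice weekly; tumours excised and weighed at sacrifice; Mean±SEM, unpaired t-test, P<0.05.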
[3] = Day 1, G10-G16 groups, single IP 400 mg/kg, Mean±SEM
[4] = Day 2, G10-G16 groups, single IP 400 mg/kg, Mean±SEM
[5] = Day 4, G10-G16 groups, single IP 400 mg/kg, Mean±SEM
[6] = Day 7, G10-G16 groups, single IP 400 mg/kg, Mean±SEM
[7] = Day 9, G10-G16 groups, single IP 400 mg/kg, Mean±SEM
[8] = Day 11, G10-G16 groups, single IP 400 mg/kg, Mean±SEM
[9] = Day 14, G10-G16 groups, single IP 400 mg/kg, Mean±SEM
[10] = Day 16, G10-G16 groups, single IP 400 mg/kg, Mean±SEM
[11] = Day 18, G10-G16 groups, single IP 400 mg/kg, Mean±SEM
[12] = Day 21, G10-G16 groups, single IP 400 mg/kg, Mean±SEM
[13] = Day 23, G10-G16 groups, single IP 400 mg/kg, Mean±SEM
[14] = Day 25, G10-G16 groups, single IP 400 mg/kg, Mean±SEM
[15] = Day 28, G10-G16 groups, single IP 400 mg/kg, Mean±SEM
[16] = Day 30, G10-G16 groups, single IP 400 mg/kg, Mean±SEM

SMILES: CCCCOC(=O)Nc1nc(=O)n(C2OC(COC(=O)COc3nc(Cl)c(Cl)cc3Cl)C(O)C2(F)F)cc1I (centres unmarked) [Compound G11]
- Day 0 (RTV) ([1]; Day 0): 1.00
- Tumor volume, Day 0 ([1]; Day 0, Mean±SEM): 71.46 ± 18.69 mm^3
- Day 1 (TGI %) ([1]; Day 1): 58.06%
- Day 1 (RTV) ([1]; Day 1, Mean±SEM): 1.00 ± 0.13
- Tumor volume, Day 1 ([1]; Day 1, Mean±SEM): 75.71 ± 22.24** mm^3
- Day 2 (TGI %) ([1]; Day 2): 58.57%
- Day 2 (RTV) ([1]; Day 2, Mean±SEM): 1.14 ± 0.16
- Tumor volume, Day 2 ([1]; Day 2, Mean±SEM): 91.91 ± 29.38** mm^3
- Day 4 (TGI %) ([1]; Day 4): 56.33%
- Day 4 (RTV) ([1]; Day 4, Mean±SEM): 1.56 ± 0.24
- Tumor volume, Day 4 ([1]; Day 4, Mean±SEM): 129.69 ± 43.49** mm^3
- Day 7 (TGI %) ([1]; Day 7): 53.56%
- Day 7 (RTV) ([1]; Day 7, Mean±SEM): 2.68 ± 0.29
- Tumor volume, Day 7 ([1]; Day 7, Mean±SEM): 200.84 ± 57.86* mm^3
- Day 9 (TGI %) ([1]; Day 9): 35.19%
- Day 9 (RTV) ([1]; Day 9, Mean±SEM): 5.21 ± 0.68
- Tumor volume, Day 9 ([1]; Day 9, Mean±SEM): 382.62 ± 103.38 mm^3
- Day 11 (TGI %) ([1]; Day 11): 49.22%
- Day 11 (RTV) ([1]; Day 11, Mean±SEM): 6.61 ± 0.62
- Tumor volume, Day 11 ([1]; Day 11, Mean±SEM): 495.68 ± 140.53* mm^3
- Day 14 (TGI %) ([1]; Day 14): 41.98%
- Day 14 (RTV) ([1]; Day 14, Mean±SEM): 12.40 ± 1.29
- Tumor volume, Day 14 ([1]; Day 14, Mean±SEM): 835.57 ± 194.90* mm^3
- Day 16 (TGI %) ([1]; Day 16): 41.43%
- Day 16 (RTV) ([1]; Day 16, Mean±SEM): 16.20 ± 1.72
- Tumor volume, Day 16 ([1]; Day 16, Mean±SEM): 1060.78 ± 231.28* mm^3
- Day 18 (TGI %) ([1]; Day 18): 36.63%
- Day 18 (RTV) ([1]; Day 18, Mean±SEM): 20.33 ± 2.96
- Tumor volume, Day 18 ([1]; Day 18, Mean±SEM): 1266.27 ± 242.09* mm^3
- Day 21 (TGI %) ([1]; Day 21): 32.98%
- Day 21 (RTV) ([1]; Day 21, Mean±SEM): 26.21 ± 3.72
- Tumor volume, Day 21 ([1]; Day 21, Mean±SEM): 1638.64 ± 312.92 mm^3
- Day 23 (TGI %) ([1]; Day 23): 28.91%
- Day 23 (RTV) ([1]; Day 23, Mean±SEM): 27.62 ± 4.39
- Tumor volume, Day 23 ([1]; Day 23, Mean±SEM): 1678.97 ± 300.64 mm^3
- Day 25 (TGI %) ([1]; Day 25): 28.29%
- Day 25 (RTV) ([1]; Day 25, Mean±SEM): 30.73 ± 4.91
- Tumor volume, Day 25 ([1]; Day 25, Mean±SEM): 1851.89 ± 322.59 mm^3
- Day 28 (TGI %) ([1]; Day 28): 20.94%
- Day 28 (RTV) ([1]; Day 28, Mean±SEM): 36.20 ± 6.28
- Tumor volume, Day 28 ([1]; Day 28, Mean±SEM): 2126.03 ± 345.51 mm^3
- Day 30 (TGI %) ([1]; Day 30): 39.43%
- Day 30 (RTV) ([1]; Day 30, Mean±SEM): 56.36 ± 6.99
- Tumor volume, Day 30 ([1]; Day 30, Mean±SEM): 1699.56 ± 350.73 mm^3
- dose that could be tolerated (maximum tolerated dose, MTD) (ICR mice): 400 mg/kg
- Weight change rate, Day 0 ([2]; Day 0, G10-G16 groups, single IP 400 mg/kg): 0.00%
- Weight of mice, Day 0 ([2]; Day 0, G10-G16 groups, single IP 400 mg/kg, Mean±SEM): 20.48 ± 0.27 g
- Weight change rate, Day 1 [2, 3]: −5.41 ± 1.27 %
- Weight of mice, Day 1 [2, 3]: 19.38 ± 0.43 g
- Weight change rate, Day 2 [2, 4]: −6.03 ± 0.57 %
- Weight of mice, Day 2 [2, 4]: 19.25 ± 0.31 g
- Weight change rate, Day 4 [2, 5]: −2.00 ± 0.76%
- Weight of mice, Day 4 [2, 5]: 20.07 ± 0.18 g
- Weight change rate, Day 7 [2, 6]: −3.58 ± 1.49%
- Weight of mice, Day 7 [2, 6]: 19.73 ± 0.17 g
- Weight change rate, Day 9 [2, 7]: −0.18 ± 1.13%
- Weight of mice, Day 9 [2, 7]: 20.43 ± 0.14 g
- Weight change rate, Day 11 [2, 8]: 1.05 ± 1.44%
- Weight of mice, Day 11 [2, 8]: 20.68 ± 0.20 g
- Weight change rate, Day 14 [2, 9]: −1.81 ± 2.2%
- Weight of mice, Day 14 [2, 9]: 20.10 ± 0.40 g
- Weight change rate, Day 16 [2, 10]: 0.01 ± 2.83%
- Weight of mice, Day 16 [2, 10]: 20.47 ± 0.49 g
- Weight change rate, Day 18 [2, 11]: 1.66 ± 3.62%
- Weight of mice, Day 18 [2, 11]: 20.80 ± 0.65 g
- Weight change rate, Day 21 [2, 12]: −0.53 ± 3.44%
- Weight of mice, Day 21 [2, 12]: 20.35 ± 0.59 g
- Day 22 Mortality ([2]; Day 22, single IP dose (mg/kg)): 0%
- Weight change rate, Day 23 [2, 13]: −1.07 ± 3.55%
- Weight of mice, Day 23 [2, 13]: 20.23 ± 0.57 g
- Weight change rate, Day 25 [2, 14]: −0.06 ± 3.97%
- Weight of mice, Day 25 [2, 14]: 20.43 ± 0.63 g
- Weight change rate, Day 28 [2, 15]: −1.11 ± 3.89%
- Weight of mice, Day 28 [2, 15]: 20.22 ± 0.61 g
- Weight change rate, Day 30 [2, 16]: 3.01 ± 7.70%
- Weight of mice, Day 30 [2, 16]: 21.00 ± 1.02 g
- clinical symptoms ([2]; after single IP dose, compared with model control group): no significant differences in clinical symptoms

From patent publication US10174067B2, “Type of cytidine derivative and application thereof” (priority 2014, dated 2019)
